# Patent publication US20260069539A1, “LIPIDOID COMPOUNDS AND RELATED COMPOSITIONS AND USES” (Poseida Therapeutics, Inc., priority 2023, published 2026)
# System: liver cells
# Assay: In vivo LNP delivery of fLuciferase mRNA, bioluminescent imaging (BLI) at 4 hr
# Set-up: species or system BALB/C mice
# Conditions: for Total Flux: 0.5 mg/kg fLuciferase mRNA intravenous, BLI at 4 hr; for Mean Luciferase Flux: 0.5 mg/kg fLuc mRNA i.v., 4 hr
# Description: Adult female BALB/C mice (n=3/group) were intravenously administered 0.5 mg/kg of 5′-CleanCap—fLuciferase mRNA (TriLink Biotech) formulated with the LNP compositions shown in Table 6. One group of mice was treated with vehicle (PBS, Thermo Fisher Scientific, USA) as a negative control.
# (§1) The location and extent of luciferase expression in treated and control mice were determined at 4 hr for mRNA and 48 hr for DNA by bioluminescent imaging (BLI) of anesthetized mice using an IVIS Lumina in vivo imaging system (Perkin Elmer) according to the manufacturer's instructions. Briefly, mice were anesthetized using isoflurane in oxygen, and placed supine on a heated stage. Mice were then administered D-luciferin (Perkin-Elmer #122799) IP, and BLI was performed.
# as §1, with “hr” for “hr for mRNA and 48 hr for DNA”
# as §1, with “hr” for “hr for mRNA and 48 hr for DNA”
# The location and extent of luciferase expression in treated and control mice were determined at 4 hr by bioluminescent imaging (BLI) of anesthetized mice using an IVIS Lumina in vivo imaging system (Perkin Elmer) according to the manufacturer's instructions.
# Briefly, mice were anesthetized using isoflurane in oxygen, and placed supine on a heated stage. Mice were then administered D-luciferin (Perkin-Elmer #122799) IP, and BLI was performed.
# as §1, with “hr” for “hr for mRNA and 48 hr for DNA”
# [1] = Example 104, experiment of Table 63
# [2] = Example 104, experiment of Table 64
# [3] = LNP with 40.75 % moles of the compound (DOPC 5.0/Chol 51.75/PEG-DMG 2.5, Lipid:RNA 100)
# [4] = LNP with 43.17 % moles of the compound (DOPC 11.96/Chol 43.17/PEG-DMG 1.7, Lipid:RNA 100)
# [5] = LNP with 54.0 % moles of the compound (DOPC 10.0/Chol 35.0/PEG-DMG 1.0, Lipid:RNA 100)
# [6] = Table 13 experiment, LNP with 50 % moles of the compound (DOPC 10/Chol 38.5/PEG-DMG 1.5, Lipid:RNA 80)
smiles,measurement,setting,value
CCCCC[C@H]1CC[C@H](C(=O)OCC(COC(=O)CCCCCN(CCCCCC(=O)OCC(COC(=O)[C@H]2CC[C@H](CCCCC)CC2)COC(=O)[C@H]2CC[C@H](CCCCC)CC2)CC(C)O)COC(=O)[C@H]2CC[C@H](CCCCC)CC2)CC1 (mixture of isomers) [COMPOUND NO. 55],Total Flux,[1],7.89E+10 p/s
CCCCC[C@H]1CC[C@H](C(=O)OCC(COC(=O)CCCCCN(CCCCCC(=O)OCC(COC(=O)[C@H]2CC[C@H](CCCCC)CC2)COC(=O)[C@H]2CC[C@H](CCCCC)CC2)CC(O)CO)COC(=O)[C@H]2CC[C@H](CCCCC)CC2)CC1 (mixture of isomers) [COMPOUND NO. 59],Total Flux,[2],1.06E+11 p/s
CC(C)CCCC1CCC(COC(=O)CCN(CCCN(C)CCCN(CCC(=O)OCC2CCC(CCCC(C)C)CC2)CCC(=O)OCC2CCC(CCCC(C)C)CC2)CCC(=O)OCC2CCC(CCCC(C)C)CC2)CC1 (centres unmarked) [COMPOUND NO. 1],Mean Luciferase Flux,[3],8.79E+09 p/s
same,Mean Luciferase Flux,[4],1.01E+10 p/s
same,Mean Luciferase Flux,[5],6.15E+08 p/s
CN(CCCN(CCC(=O)OCC1CCC(CCCCC2CCCCC2)CC1)CCC(=O)OCC1CCC(CCCCC2CCCCC2)CC1)CCCN(CCC(=O)OCC1CCC(CCCCC2CCCCC2)CC1)CCC(=O)OCC1CCC(CCCCC2CCCCC2)CC1 (centres unmarked) [COMPOUND NO. 2],Mean Luciferase Flux,[3],2.53E+07 p/s
CN(CCCN(CCC(=O)OCCOC(=O)CCCCC1CCCCC1)CCC(=O)OCCOC(=O)CCCCC1CCCCC1)CCCN(CCC(=O)OCCOC(=O)CCCCC1CCCCC1)CCC(=O)OCCOC(=O)CCCCC1CCCCC1 [COMPOUND NO. 5],Mean Luciferase Flux,[3],2.84E+11 p/s
same,Mean Luciferase Flux,[4],7.16E+10 p/s
same,Mean Luciferase Flux,[5],7.25E+08 p/s
CN(CCN(CCC(=O)OCCOC(=O)CCCCC1CCCCC1)CCC(=O)OCCOC(=O)CCCCC1CCCCC1)CCN(CCC(=O)OCCOC(=O)CCCCC1CCCCC1)CCC(=O)OCCOC(=O)CCCCC1CCCCC1 [COMPOUND NO. 6],Mean Luciferase Flux,[3],1.78E+11 p/s
same,Mean Luciferase Flux,[4],3.23E+10 p/s
same,Mean Luciferase Flux,[5],4.58E+10 p/s
CC(C)CCCC(=O)OCC1CCC(COC(=O)CCN(CCCN(C)CCCN(CCC(=O)OCC2CCC(COC(=O)CCCC(C)C)CC2)CCC(=O)OCC2CCC(COC(=O)CCCC(C)C)CC2)CCC(=O)OCC2CCC(COC(=O)CCCC(C)C)CC2)CC1 (centres unmarked) [COMPOUND NO. 7],Mean Luciferase Flux,[3],6.41E+10 p/s
same,Mean Luciferase Flux,[4],1.84E+11 p/s
same,Mean Luciferase Flux,[5],1.55E+11 p/s
CCCCCC(=O)OCC1CCC(COC(=O)CCN(CCCN(C)CCCN(CCC(=O)OCC2CCC(COC(=O)CCCCC)CC2)CCC(=O)OCC2CCC(COC(=O)CCCCC)CC2)CCC(=O)OCC2CCC(COC(=O)CCCCC)CC2)CC1 (centres unmarked) [COMPOUND NO. 8],Mean Luciferase Flux,[3],1.27E+11 p/s
same,Mean Luciferase Flux,[4],3.31E+11 p/s
same,Mean Luciferase Flux,[5],2.33E+11 p/s
CCCCC[C@H]1CC[C@H](C(=O)OCCCCCN(CCO)CCCOC(=O)[C@H]2CC[C@H](CCCCC)CC2)CC1 [COMPOUND NO. 21],Mean Luciferase Flux,[6],1.27E+08 p/s
CCCCC[C@H]1CC[C@H](C(=O)OCCCCCN(CCCO)CCCOC(=O)[C@H]2CC[C@H](CCCCC)CC2)CC1 [COMPOUND NO. 22],Mean Luciferase Flux,[6],2.31E+07 p/s
CCCCC[C@H]1CC[C@H](C(=O)OCCCCCCCN(CCO)CCCCCCCOC(=O)[C@H]2CC[C@H](CCCCC)CC2)CC1 [COMPOUND NO. 24],Mean Luciferase Flux,[6],3.46E+06 p/s
CCCCCCCCC(CCCCCC)C(=O)O[C@H]1CC[C@H](OC(=O)CCCCCN(CCO)CCCCCC(=O)O[C@H]2CC[C@H](OC(=O)C(CCCCCC)CCCCCCCC)CC2)CC1 (some centres unmarked) [COMPOUND NO. 27],Mean Luciferase Flux,[6],1.10E+10 p/s
CCCCCCCCC(CCCCCC)C(=O)O[C@H]1CC[C@H](OC(=O)CCCCCN(CCCO)CCCCCC(=O)O[C@H]2CC[C@H](OC(=O)C(CCCCCC)CCCCCCCC)CC2)CC1 (some centres unmarked) [COMPOUND NO. 28],Mean Luciferase Flux,[6],3.28E+10 p/s
CCCCCCCCC(CCCCCCCC)OC(=O)[C@H]1CC[C@H](C(=O)OCCCCCN(CCO)CCCCCOC(=O)[C@H]2CC[C@H](C(=O)OC(CCCCCCCC)CCCCCCCC)CC2)CC1 [COMPOUND NO. 30],Mean Luciferase Flux,[6],2.54E+10 p/s
CCCCCCCCC(CCCCCCCC)OC(=O)[C@H]1CC[C@H](C(=O)OCCCCCN(CCCO)CCCCCOC(=O)[C@H]2CC[C@H](C(=O)OC(CCCCCCCC)CCCCCCCC)CC2)CC1 [COMPOUND NO. 31],Mean Luciferase Flux,[6],1.00E+10 p/s
CCCCCCCCC(CCCCCCCC)OC(=O)[C@H]1CC[C@H](C(=O)OCCCCCN(CCCCO)CCCCCOC(=O)[C@H]2CC[C@H](C(=O)OC(CCCCCCCC)CCCCCCCC)CC2)CC1 [COMPOUND NO. 32],Mean Luciferase Flux,[6],7.76E+09 p/s
CCCCCCCCC(CCCCCC)C(=O)OC1CCC(OC(=O)CCCCCN(CCO)CCCCCCCOC(=O)C2CCC(CCCCC)CC2)CC1 (centres unmarked) [COMPOUND NO. 33],Mean Luciferase Flux,[6],1.73E+10 p/s
CCCCCCCCC(CCCCCCCC)OC(=O)C1CCC(C(=O)OCCCCCN(CCO)CCCCCCCOC(=O)C2CCC(CCCCC)CC2)CC1 (centres unmarked) [COMPOUND NO. 34],Mean Luciferase Flux,[6],1.87E+10 p/s
CCCCC[C@H]1CC[C@H](C(=O)CCCCN(CCCOC(=O)[C@H]2CC[C@H](CCCCC)CC2)CCCN(C)CCCN(CCCOC(=O)[C@H]2CC[C@H](CCCCC)CC2)CCCOC(=O)[C@H]2CC[C@H](CCCCC)CC2)CC1 [COMPOUND NO. 35],Mean Luciferase Flux,"Table 13 experiment, first line of compound 35, printed 50 % moles (Table 12: 40.75 % moles, Lipid:RNA 80)",2.35E+09 p/s
same,Mean Luciferase Flux,"Table 13 experiment, second line of compound 35, printed 50 % moles (Table 12: 40.75 % moles, Lipid:RNA 40)",3.13E+09 p/s
CC(C)CCCC1CCC(COC(=O)C(CCCN(C)CCCC(C(=O)OCC2CCC(CCCC(C)C)CC2)C(=O)OCC2CCC(CCCC(C)C)CC2)C(=O)OCC2CCC(CCCC(C)C)CC2)CC1 (centres unmarked) [COMPOUND NO. 43],Mean Luciferase Flux,"Table 14 experiment, LNP with 40.75 % moles of the compound (Lipid:RNA 40)",1.12E+09 p/s
same,Mean Luciferase Flux,"Table 14 experiment, LNP with 50 % moles of the compound (Lipid:RNA 80)",1.10E+09 p/s
CCCCC(CC)CCCCOC(=O)C(CCCN(CCCO)CCCC(C(=O)OCCCCC1CCCCC1)C(=O)OCCCCC1CCCCC1)C(=O)OCCCCC1CCCCC1 (centres unmarked) [COMPOUND NO. 44],Total Flux,[1],5.73E+08 p/s
O=C(OCCCCC1CCCCC1)C(CCCCCCN(CCCO)CCCCCCC(C(=O)OCCCCC1CCCCC1)C(=O)OCCCCC1CCCCC1)C(=O)OCCCCC1CCCCC1 [COMPOUND NO. 45],Total Flux,[1],2.42E+10 p/s
CCCCCC(=O)OCC1CCC(COC(=O)C(CCCN(CCCO)CCCC(C(=O)OCC2CCC(COC(=O)CCCCC)CC2)C(=O)OCC2CCC(COC(=O)CCCCC)CC2)C(=O)OCC2CCC(COC(=O)CCCCC)CC2)CC1 (centres unmarked) [COMPOUND NO. 49],Total Flux,[1],2.00E+11 p/s
CCCCC[C@H]1CC[C@H](C(=O)OCC(COC(=O)CCCCCN(CCCCCO)CCCCCC(=O)OCC(COC(=O)[C@H]2CC[C@H](CCCCC)CC2)COC(=O)[C@H]2CC[C@H](CCCCC)CC2)COC(=O)[C@H]2CC[C@H](CCCCC)CC2)CC1 [COMPOUND NO. 51],Total Flux,[1],2.65E+10 p/s
CCCCC[C@H]1CC[C@H](C(=O)OCC(COC(=O)CCCCCN(CCCCCCO)CCCCCC(=O)OCC(COC(=O)[C@H]2CC[C@H](CCCCC)CC2)COC(=O)[C@H]2CC[C@H](CCCCC)CC2)COC(=O)[C@H]2CC[C@H](CCCCC)CC2)CC1 [COMPOUND NO. 52],Total Flux,[1],1.81E+11 p/s
CCCCC[C@H]1CC[C@H](C(=O)OCC(COC(=O)CCCCCN(CCCCCC(=O)OCC(COC(=O)[C@H]2CC[C@H](CCCCC)CC2)COC(=O)[C@H]2CC[C@H](CCCCC)CC2)[C@H]2CC[C@H](CO)CC2)COC(=O)[C@H]2CC[C@H](CCCCC)CC2)CC1 [COMPOUND NO. 54],Total Flux,[1],1.30E+11 p/s
CCCCC[C@H]1CC[C@H](C(=O)OCC(COC(=O)CCCCCN(CCCCCC(=O)OCC(COC(=O)[C@H]2CC[C@H](CCCCC)CC2)COC(=O)[C@H]2CC[C@H](CCCCC)CC2)C[C@H](C)O)COC(=O)[C@H]2CC[C@H](CCCCC)CC2)CC1 [COMPOUND NO. 56],Total Flux,[1],9.88E+10 p/s
CCCCC[C@H]1CC[C@H](C(=O)OCC(COC(=O)CCCCCN(CCCCCC(=O)OCC(COC(=O)[C@H]2CC[C@H](CCCCC)CC2)COC(=O)[C@H]2CC[C@H](CCCCC)CC2)C[C@@H](C)O)COC(=O)[C@H]2CC[C@H](CCCCC)CC2)CC1 [COMPOUND NO. 57],Total Flux,[1],9.69E+10 p/s
CCCCC[C@H]1CC[C@H](C(=O)OCC(COC(=O)CCCCCN(CCC)CCCCCC(=O)OCC(COC(=O)[C@H]2CC[C@H](CCCCC)CC2)COC(=O)[C@H]2CC[C@H](CCCCC)CC2)COC(=O)[C@H]2CC[C@H](CCCCC)CC2)CC1 [COMPOUND NO. 58],Total Flux,[2],4.38E+09 p/s
